Assay results: patent US12404263B2, “ASK1 inhibiting agents” (BIOGEN MA INC., priority 2018, dated 2025)

Legend:
GST-hASK1 = biological target: T1, GST-hASK1 (Homo sapiens, UniProt Q99683); experiment: ASK1 TR-FRET assay; assay type: biochemical; conditions: 5 nM GST-hASK1, 100 μM ATP, 2 μM STK Substrate 3
T1 construct: GST (N); purchased Life Technologies PV4011
T1 sequence (Q99683 1-1374): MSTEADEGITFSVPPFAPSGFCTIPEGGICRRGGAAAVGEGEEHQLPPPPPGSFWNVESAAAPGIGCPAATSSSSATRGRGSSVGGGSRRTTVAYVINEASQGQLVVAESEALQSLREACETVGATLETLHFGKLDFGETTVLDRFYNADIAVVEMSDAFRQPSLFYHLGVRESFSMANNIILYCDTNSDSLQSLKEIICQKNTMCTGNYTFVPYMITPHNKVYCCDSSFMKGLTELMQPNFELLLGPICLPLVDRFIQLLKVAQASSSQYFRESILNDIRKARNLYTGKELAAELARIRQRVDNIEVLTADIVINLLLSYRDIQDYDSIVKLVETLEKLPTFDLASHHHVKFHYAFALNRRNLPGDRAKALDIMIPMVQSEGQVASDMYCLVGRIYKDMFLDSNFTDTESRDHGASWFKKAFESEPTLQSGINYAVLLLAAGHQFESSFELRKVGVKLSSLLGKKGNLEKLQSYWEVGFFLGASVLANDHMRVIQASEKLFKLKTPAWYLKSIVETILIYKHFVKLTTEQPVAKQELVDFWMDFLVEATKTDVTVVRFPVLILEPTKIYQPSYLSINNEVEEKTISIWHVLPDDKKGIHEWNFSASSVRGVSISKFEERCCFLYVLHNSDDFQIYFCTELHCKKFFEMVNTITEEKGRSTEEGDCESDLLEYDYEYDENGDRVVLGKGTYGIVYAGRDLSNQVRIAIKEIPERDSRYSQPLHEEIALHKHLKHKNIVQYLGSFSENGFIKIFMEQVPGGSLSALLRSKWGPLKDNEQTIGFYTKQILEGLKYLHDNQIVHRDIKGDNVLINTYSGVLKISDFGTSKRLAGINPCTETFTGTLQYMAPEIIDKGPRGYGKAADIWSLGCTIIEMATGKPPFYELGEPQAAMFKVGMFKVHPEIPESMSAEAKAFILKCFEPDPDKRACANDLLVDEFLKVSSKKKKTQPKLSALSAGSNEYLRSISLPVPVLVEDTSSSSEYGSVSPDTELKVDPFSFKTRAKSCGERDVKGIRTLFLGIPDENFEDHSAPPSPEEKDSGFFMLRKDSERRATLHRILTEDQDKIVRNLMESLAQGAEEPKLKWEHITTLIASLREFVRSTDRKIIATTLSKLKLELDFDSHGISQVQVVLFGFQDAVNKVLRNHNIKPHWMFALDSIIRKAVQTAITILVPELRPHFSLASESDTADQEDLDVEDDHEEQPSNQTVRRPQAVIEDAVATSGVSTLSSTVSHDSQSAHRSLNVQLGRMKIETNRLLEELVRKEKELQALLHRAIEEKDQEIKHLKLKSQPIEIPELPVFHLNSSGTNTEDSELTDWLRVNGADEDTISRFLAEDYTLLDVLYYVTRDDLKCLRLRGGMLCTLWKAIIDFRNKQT
Method: The protein kinase activity of 5 nM GST-hASK1 (Life Technologies PV4011) was assayed with 100 μM ATP and 2 μM of HTRF biotinylated STK Substrate 3 (CisBio Kit 62ST3PEJ), at ambient temperature in 25 mM Hepes, pH 7.5, 50 mM NaCl, 10 mM MgCl2, 0.02% Brij-35, 1 mM DTT, and 1% DMSO.
Briefly, 20 μL aliquots of a 1.5× stock of ASK1, STK Substrate 3 and Assay Buffer were distributed in the wells of a white 384 well Optiplate, prior to addition of 0.3 μL of a 100× compound stock in DMSO, or DMSO alone in Blank and 100% Activity Controls. After a 10 minute pre-incubation, ASK1 protein kinase activity was initiated by addition of 10 μL of 300 μM ATP. After 5 hours, the kinase activity was quenched by addition of 30 μL of CisBio Kit 62ST3PEJ components: 0.5 μM of Streptavidin XL665; and 100×STK Antibody-Eu Cryptate; in Detection Buffer containing sufficient EDTA to chelate Mg^2+ in the assay buffer. The plates were read after 65 minutes in an Envision Plate reader, with the following components and settings: Top Mirror, Lance Delfia Dual (662); UV Ex Filter, 320 nm (111); Emission Filter for donor, 615 nm (203); Emission Filter for Acceptor; 665 nm (205); and 100 μsec delay, with 665/615 ratio output. […]

[1] = biological target: T2, ASK1 T838 auto phosphorylation (Homo sapiens, UniProt Q99683); experiment: ASK1 (AUTO PHOS T838) assay in HEK-293T cells, MSD format; assay type: cell-based; conditions: HEK-293T cells transfected with ASK1-V5, 1 hr compound incubation; read-out: IC50
T2 construct: transfected with 9 μg of ASK1-V5 tagged full length plasmid; expressed in transfected cells; host or cells: HEK-293T
T2 sequence (Q99683 1-1374): T1 sequence (Q99683 1-1374)
Method: ASK1 T838 auto phosphorylation was measured in HEK-293T cells using MSD assay format. HEK 293T cells were seeded in 15 cm plates at a density of 18 million cells and 20 mL DMEM with 10% FBS, Pen/Strep media. The plates were incubated at 37° C. overnight. Media on plates was changed to OPTI-MEM, serum free media and cells were transfected with 9 μg of ASK1-V5 tagged full length plasmid using Lipofectamine 2000 (Invitrogen) and the plates were incubated at 37° C. overnight. Cells were trypsinized, counted on Nexcellometer and plated into 96 well tissue culture plates with 100,000 cells/well and 200 μL media. Cells were incubated for 4 hr at 37° C. then ASK1 compounds were added using a HP 300e. Compounds were tested at 20 μM with 3 fold, 10 point dilution points then incubated for 1 hr at 37° C. A lysis buffer (Cell Signaling) was prepared with protease and phosphatase inhibitor and maintained at 4° C. until use. Media from cells was discarded and 120 μL of cold lysis buffer was added to the cells, the plate was shaken 4° C. for 1 hr. Lysate was mixed using Apricot liquid handler; aspirating up and down 16 times at high speed using 50 μL volume. 50 μL of cell lysates were transferred to a pre-coated MSD plates containing mouse anti-V5 antibody (1:500 dilution) and washed 3× with MSD wash buffer (TBST) and blocked with a 3% BSA solution. Plates were then incubated on a plate shaker overnight at 4° C. Plates were washed 3× with MSD wash buffer and 50 μL of rabbit anti-pASK1 T838 antibody was added to the wells and incubated for 2 hr at room temperature on a plate shaker. Plates were then washed and 50 μL of goat anti-rabbit sulfa-tag (1:500 dilution) was added to wells, and incubated for 1 hr at room temperature on a plate shaker. Plates were washed 3× and 150 μL of 2×MSD Read buffer was added to wells. Plates were immediately read on a MSD Instrument Reader where chemoluminecense signal was measured. Data was analyzed using Graph Pad or Genedata, the data was normalized and plotted, % activity versus log of compound concentration. The IC50 values were obtained from a 4 parameter fit.

MDR1 = biological target: T3, MDR1 (Homo sapiens, UniProt P08183); experiment: MDR1-MDCK assay; assay type: in vitro ADME; conditions: read-out: in vitro ER (efflux ratio)
T3 construct: host or cells: MDCK
T3 sequence (P08183 whole entry): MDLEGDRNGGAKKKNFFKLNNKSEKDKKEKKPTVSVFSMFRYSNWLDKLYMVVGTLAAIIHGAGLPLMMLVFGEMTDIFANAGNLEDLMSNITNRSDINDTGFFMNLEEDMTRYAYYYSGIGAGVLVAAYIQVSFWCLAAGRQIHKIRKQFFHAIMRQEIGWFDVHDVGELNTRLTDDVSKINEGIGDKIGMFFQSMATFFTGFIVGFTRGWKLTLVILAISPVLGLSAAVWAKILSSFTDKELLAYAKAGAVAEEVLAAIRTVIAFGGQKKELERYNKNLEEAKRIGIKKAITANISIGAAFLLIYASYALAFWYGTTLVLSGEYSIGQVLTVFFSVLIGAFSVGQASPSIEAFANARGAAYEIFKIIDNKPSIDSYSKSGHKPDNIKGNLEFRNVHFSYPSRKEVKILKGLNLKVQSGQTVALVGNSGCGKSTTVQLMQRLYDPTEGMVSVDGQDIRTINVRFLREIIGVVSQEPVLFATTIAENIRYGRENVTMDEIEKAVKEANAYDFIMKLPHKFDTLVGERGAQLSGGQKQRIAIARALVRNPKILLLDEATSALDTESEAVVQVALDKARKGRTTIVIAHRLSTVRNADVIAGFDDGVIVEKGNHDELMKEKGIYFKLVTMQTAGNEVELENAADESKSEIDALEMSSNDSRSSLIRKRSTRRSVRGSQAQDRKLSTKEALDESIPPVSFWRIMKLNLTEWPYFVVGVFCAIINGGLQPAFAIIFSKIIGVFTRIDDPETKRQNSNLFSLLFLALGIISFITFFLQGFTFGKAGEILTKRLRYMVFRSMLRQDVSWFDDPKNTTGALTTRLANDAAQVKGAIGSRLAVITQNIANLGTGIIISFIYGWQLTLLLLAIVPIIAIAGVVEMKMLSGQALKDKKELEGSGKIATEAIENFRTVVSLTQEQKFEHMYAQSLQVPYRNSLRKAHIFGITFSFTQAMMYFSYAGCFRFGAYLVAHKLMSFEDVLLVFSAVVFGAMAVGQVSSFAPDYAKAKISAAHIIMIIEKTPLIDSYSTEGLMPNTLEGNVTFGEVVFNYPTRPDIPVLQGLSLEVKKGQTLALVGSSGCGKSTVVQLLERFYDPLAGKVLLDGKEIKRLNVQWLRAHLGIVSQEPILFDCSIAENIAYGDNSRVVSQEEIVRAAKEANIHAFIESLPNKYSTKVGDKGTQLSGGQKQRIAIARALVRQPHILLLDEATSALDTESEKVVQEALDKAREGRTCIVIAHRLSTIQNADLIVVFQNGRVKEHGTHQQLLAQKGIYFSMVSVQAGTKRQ
Method: To predict the CNS penetration of the compounds described herein, several compounds were selected for an in vitro MDR1-MDCK assay. These experiments are conducted using human MDR1 transfected MDCK cells (Absorption Systems, Exton, PA) and the compounds are tested at 1 μM concentration prepared in transport buffer (Hank's balanced salt solution with HEPES) and following the steps below: • 1. MDR1-MDCK cell are cultured for 7 days in 96 well transwell insert plates (Corning). Insert plates are washed before the assay and TEER (trans epithelial electric resistance) is measured. • 2. These plates are loaded with test compound solution 85 μL for A-B transport and 260 μL for B-A transport in the respective donor compartment. The volume of receiver buffer (Transport buffer supplemented with 1% BSA) in the respective receiver compartment is 250 μL and 75 μL. • 3. 10 μL samples is taken from donor compartment (T=0 timepoint) • 4. Assay plates are incubated for 120 minutes. • 5. At 120 minutes (T=120 timepoint) samples from respective donor (10 μL) and receiver (50 μL) compartments is taken. • 6. After addition of 40 μL transport buffer with BSA to donor samples, crash solution (Acetonitrile with internal standard, 110 μL) is added to all samples. • 7. […] Samples are analyzed using LC-MS/MS coupled with high throughput injection system. • 9. […]

ASK1/MAP3K5 = biological target: T4, ASK1/MAP3K5 (Homo sapiens, UniProt Q99683); experiment: ASK1/MAP3K5 assay by Reaction Biology Corp. (33P-ATP filter-binding); assay type: biochemical; conditions: 20 μM MBP, 100 μM ATP
T4 construct: purchased Reaction Biology Corp. (Malvern, PA)
T4 sequence (Q99683 1-1374): T1 sequence (Q99683 1-1374)
Method: Alternatively, the protein kinase inhibitory activity of the compounds described herein were tested using the ASK1/MAP3K5 assay by Reaction Biology Corp. (Malvern, PA). The assay procedure follows (and is also available on the Reaction Biology Corp. website). • Base Reaction Buffer: 20 mM Hepes (pH 7.5), 10 mM MgCl2, 1 mM EGTA, 0.02% Brij35, 0.02 mg/mL BSA, 0.1 mM Na3VO4, 2 mM DTT, 1% DMSO; • Substrate: 20 μM of myelin basic protein (MBP) and 100 μM ATP; • Protein kinase: ASK1/MAP3K5. Reaction Procedure: • 1. Prepare indicated substrate in freshly prepared Base Reaction Buffer. • 2. Deliver any required cofactors to the substrate solution. • 3. Deliver indicated kinase into the substrate solution and gently mix. • 4. Deliver compounds in DMSO into the kinase reaction mixture by Acoustic; technology (Echo550; nanoliter range), incubate for 20 minutes at room temperature. • 5. Deliver ^33P-ATP (specific activity 10 μCi/μL) into the reaction mixture to initiate the reaction. • 6. Incubate kinase reaction for 2 hours at room temperature. • 7. Reactions are spotted onto P81 ion exchange paper. • 8. Detect kinase activity by filter-binding method.

[2] = In vivo brain penetration (rat Kpuu); conditions: brain and plasma (unbound concentrations), IV infusion four hours, 1 mg/kg, steady state
Method: To evaluate the CNS penetration of the compounds described herein, several compounds were selected for in vivo rat Kpuu studies. In these experiments the compounds are administered via an IV infusion (using N,N-dimethylacetamide:ethanol:1,2-propylene glycol:water in a 1:1:3:5 ratio as the vehicle) in the carotid artery for a period of four hours (1 mg/kg, 0.1 mg/mL) to reach steady state. After this time the plasma and brain concentration levels are quantified, and the values are adjusted by the measured protein binding in plasma and brain homogenate to calculate the K puu (see Di, L.; Kerns, E. H. Blood-Brain Barrier in Drug Discovery (Wiley)) according to the equation below. […]
Plasma and brain protein binding values were generated via the Rapid Equilibrium Dialysis method. […] At the conclusion of incubation samples were taken from both matrix and buffered compartments, matrix-matched using blank buffer and matrix, extracted with acetonitrile, diluted with water, and analyzed utilizing an Agilent RapidFire 365 high-throughput LC coupled with MS/MS detection via an AB Sciex 5500. Free fractions (fu) were then calculated by comparing internal standard/analyte peak-area ratios of matrix and buffered compartments.
Total drug concentration in plasma and brain tissue was measured via well-established bioanalytical extraction (protein precipitation) and detection methods (LC-MS/MS). […]

Row | SMILES | IC50 (GST-hASK1) | IC50 [1] | efflux ratio at 120 min, 1 μM (MDR1) | IC50 (ASK1/MAP3K5) | Kp uu at 4 h [2]
1 | COc1ncccc1C(=O)Nc1cccc(-c2nncn2C(C)C)n1 [Compound 1, N-(6-(4-Isopropyl-4H-1,2,4-triazol-3-yl)pyridin-2-yl)-2-methoxynicotinamide] | < 0.1 µM | ≤ 1 µM | – | – | –
2 | COc1ncccc1C(=O)Nc1cccc(-c2nncn2C2(C(F)(F)F)CC2)n1 [Compound 16, 2-Methoxy-N-(6-(4-(1-(trifluoromethyl)cyclopropyl)-4H-1,2,4-triazol-3-yl)pyridin-2-yl)nicotinamide] | – | ≤ 1 µM | < 3 | ≤ 0.1 µM | 0.41
